Data on 54 compounds can be found in US9840464B2, “IAP binding compounds” (TetraLogic Birinapant UK Ltd., priority 2004, dated 2017).

Counter-ions that a name gives are not always drawn. Where only a bound is given, the exact number is not on record here.

The term Kd denotes a measure of binding affinity in units of concentration.

Chain of XIAP-BIR3 (P98170 241-356 limits assumed): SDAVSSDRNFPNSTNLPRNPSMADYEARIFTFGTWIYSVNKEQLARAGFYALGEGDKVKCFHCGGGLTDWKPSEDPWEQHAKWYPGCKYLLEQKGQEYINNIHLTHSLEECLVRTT

The target in this experiment is XIAP-BIR3 (Homo sapiens, UniProt P98170). The experiment can be described thus: XIAP BIR3 fluorescence polarization binding assay (competition with AbuRPF-K(5-Fam)-NH2). The settings on record: 5 nM AbuRPF-K(5-Fam)-NH2, 40 nM XIAP-BIR3, pH 7.5; Kd calculated from measured IC50; read-out: KD Range. On the procedure:
Binding constants (Kd) were measured using fluorescence polarization as described by Zaneta Nikolovska-Coleska, Renxiao Wang, Xueliang Fang, Hongguang Pan, York Tomita, Peng Li, Peter P. Roller, Krzysztof Krajewski, Naoyuki Saito, Jeanne Stuckey and Shaomeng Wang, in “Development and Optimization of a Binding Assay for the XIAP BIR3 Domain Using Fluorescence Polarization”, Analytical Biochemistry 2004, 332, 261-273). Briefly, test IAP binding compounds at various concentrations for binding measurements were mixed with 5 nM fluorescently labeled peptide (AbuRPF-K(5-Fam)-NH2) and 40 nM of XIAP-BIR3 for 15 minutes at room temperature in 100 μL of 0.1M Potassium Phosphate buffer, pH 7.5 containing 100 μg/ml bovine γ-globulin. Following incubation, the polarization values (mP) were measured on a Victor^2V using a 485 nm excitation filter and a 520 nm emission filter. IC50 values were determined from the plot using nonlinear least-squares analysis using GraphPad Prism. The Kd values of competitive inhibitors were calculated using the equation described by Zaneta Nikolovska-Coleska et al. based upon the measured IC50 values, the Kd value of the probe and XIAP BIR3 complex, and the concentrations of the protein and probe in the competition assay. In various examples of IAP binding or IAP binding cargo molecules ranges for Kd values: Group A: Kd<0.1 μM; Group B: Kd=0.1-1 μM; Group C: Kd=1-10 μM; Group D: Kd>10 μM.
With “2-Amino-N-{2-methyl-1-[2-(5-pyridin-2-yl-benzofuran-3-ylmethyl)-pyrrolidine-1-carbonyl]-propyl}-propionamide [Entry 8-79]”, the Kd is 1000 to 10000 nM.

`CC(N)C(=O)NC(C(=O)N1CCCC1CCCOc1ccccc1-c1ccccc1)C(C)C` (single isomer, unassigned) [Entry 4-36]: the Kd was > 10000 nM.

For the compound `CC(N)C(=O)NC(C(=O)N1CC(Oc2ccccc2)CC1Cc1coc2ccccc12)C(C)C` (single isomer, unassigned) [Entry 5-53], the Kd was 1000 to 10000 nM.

Regarding `CC(C)[C@H](NC(=O)[C@H](C)N)C(=O)N1C[C@@H](Oc2ccccc2)C[C@H]1COc1ccccc1` [Entry 2-1, 2S-Amino-N-[2-methyl-1S-(4S-phenoxy-2S-phenoxymethyl-pyrrolidine-1-carbonyl)-propyl]-propionamide hydrochloride], the Kd was 100 to 1000 nM.

As to `CN[C@@H](C)C(=O)N[C@H](C(=O)N1C[C@@H](Oc2ccccc2)C[C@H]1COc1ccccc1)C(C)C` [Entry 2-2], the Kd is 100 to 1000 nM.

Turning to `CC(N)C(=O)NC(C(=O)N1CCCC1COc1ccccc1)C(C)C` (stereo not drawn) [Entry 2-3], the Kd was 100 to 1000 nM.

In the case of `CNC(C)C(=O)NC(C(=O)N1CCCC1COc1ccccc1-c1ccccc1)C(C)C` (stereo not drawn) [Entry 2-5], the Kd is 100 to 1000 nM.

`CC(N)C(=O)NC(C(=O)N1CCCC1COc1ccccc1-c1ccccc1)C(C)C` (stereo not drawn) [Entry 2-6]: the Kd was 100 to 1000 nM.

`C#CCOC(C)[C@H](NC(=O)[C@H](C)N)C(=O)N1C[C@@H](Oc2ccccc2)C[C@H]1COc1ccccc1` (stereo partly drawn) [Entry 2-7]: the Kd is < 100 nM.

On to `CC(C)[C@H](NC(=O)[C@H](C)N)C(=O)N1C[C@@H](Oc2ccccc2)C[C@H]1/C=C/COc1ccccc1` [Entry 3-8], for which the Kd is 100 to 1000 nM.

`CC(C)[C@H](NC(=O)[C@H](C)N)C(=O)N1C[C@@H](Oc2ccccc2)C[C@H]1/C=C/COc1ccccc1Br` [Entry 3-9]: the Kd was 100 to 1000 nM.

For `CC(C)[C@H](NC(=O)[C@H](C)N)C(=O)N1C[C@@H](Oc2ccccc2)C[C@H]1/C=C/COc1cccc(Cl)c1Cl` [Entry 3-10], the Kd was 100 to 1000 nM.

Take `CC(C)[C@H](NC(=O)[C@H](C)N)C(=O)N1C[C@@H](Oc2ccccc2)C[C@H]1/C=C/COc1ccc(Cl)cc1Cl` [Entry 3-11]: the Kd was 100 to 1000 nM.

Take `CCc1ccccc1OC/C=C/[C@@H]1C[C@H](Oc2ccccc2)CN1C(=O)[C@@H](NC(=O)[C@H](C)N)C(C)C` [Entry 3-12, trans-2S-Amino-N-(1S-{2S-[3-(2-ethyl-phenoxy)-propenyl]-4S-phenoxy-pyrrolidine-1-carbonyl}-2-methyl-propyl)-propionamide]: the equilibrium dissociation constant (Kd) was 100 to 1000 nM.

`CN[C@@H](C)C(=O)N[C@H](C(=O)N1C[C@@H](Oc2ccccc2)C[C@H]1/C=C/COc1cccc(Cl)c1Cl)C(C)C` [Entry 3-13]: the Kd is 100 to 1000 nM.

On to `CC(C)[C@H](NC(=O)[C@H](C)N)C(=O)N1C[C@@H](Oc2ccccc2)C[C@H]1/C=C/COc1cccc(Br)c1` [Entry 3-14], for which the Kd was 100 to 1000 nM.

For `CC(C)Oc1ccccc1OC/C=C/[C@@H]1C[C@H](Oc2ccccc2)CN1C(=O)[C@@H](NC(=O)[C@H](C)N)C(C)C` [Entry 3-15], the Kd was 100 to 1000 nM.

Consider `CC(C)[C@H](NC(=O)[C@H](C)NC(=O)OC(C)(C)C)C(=O)N1C[C@@H](Oc2ccccc2)C[C@H]1/C=C/COc1ccc2c(c1)CCCC2` [Entry 3-16], for which the Kd was > 10000 nM.

Turning to `COc1ccccc1OC/C=C/[C@@H]1C[C@H](Oc2ccccc2)CN1C(=O)[C@@H](NC(=O)[C@H](C)N)C(C)C` [Entry 3-18], the Kd is 100 to 1000 nM.

With `COc1ccccc1OC/C=C/[C@@H]1C[C@H](Oc2ccccc2)CN1C(=O)[C@@H](NC(=O)CN)C(C)C` [Entry 3-19], the Kd was > 10000 nM.

Consider `CC(C)[C@H](NC(=O)[C@H](C)N)C(=O)N1C[C@@H](Oc2ccccc2)C[C@H]1/C=C/COc1ccccc1-c1ccccc1` [Entry 3-20], for which the Kd was 100 to 1000 nM.

For the compound `Cc1cccc(C)c1OC/C=C/[C@@H]1C[C@H](Oc2ccccc2)CN1C(=O)[C@@H](NC(=O)[C@H](C)N)C(C)C` [Entry 3-22], the Kd is < 100 nM.

On to `CCc1ccccc1OCCC[C@H]1C[C@H](Oc2ccccc2)CN1C(=O)[C@@H](NC(=O)[C@H](C)N)C(C)C` [Entry 4-25, 2S-Amino-N-(1S-{2S-[3-(2-ethyl-phenoxy)-propyl]-4S-phenoxy-pyrrolidine-1-carbonyl}-2-methyl-propyl)-propionamide], for which the Kd was 100 to 1000 nM.

Consider `CCc1ccccc1OCCC[C@@H]1C[C@H](Oc2ccccc2)CN1C(=O)[C@@H](NC(=O)[C@H](C)NC)C(C)C` [Entry 4-26], for which the Kd was 100 to 1000 nM.

As for `CCc1ccccc1OCCCC1CC(Oc2ccccc2)CN1C(=O)C(NC(=O)CN)C(C)C` (stereo not drawn) [Entry 4-27], the Kd is > 10000 nM.

`CCc1ccccc1OCCC[C@@H]1C[C@H](Oc2ccccc2)CN1C(=O)[C@@H](NC(=O)[C@H](C)NC)C(C)(C)C` [Entry 4-28]: the Kd is 100 to 1000 nM.

Consider `CC(C)Oc1ccccc1OCCC[C@@H]1C[C@H](Oc2ccccc2)CN1C(=O)[C@@H](NC(=O)[C@H](C)N)C(C)C` [Entry 4-29], for which the Kd is 100 to 1000 nM.

Consider `CC(C)c1ccccc1OCCC[C@@H]1C[C@H](Oc2ccccc2)CN1C(=O)[C@@H](NC(=O)[C@H](C)N)C(C)C` [Entry 4-30], for which the Kd is 100 to 1000 nM.

Regarding `Cc1cccc(C)c1OCCC[C@@H]1C[C@H](Oc2ccccc2)CN1C(=O)[C@@H](NC(=O)[C@H](C)N)C(C)C` [Entry 4-31], the Kd is 100 to 1000 nM.

Turning to `CC(C)[C@H](NC(=O)[C@H](C)N)C(=O)N1CCC[C@H]1CCCOc1ccccc1-c1ccccc1` [Entry 4-32], the Kd was 100 to 1000 nM.

For the compound `CCc1ccccc1OCCCC1CCCN1C(=O)C(NC(=O)C(C)N)C(C)C` (stereo not drawn) [Entry 4-34], the Kd is 1000 to 10000 nM.

With `CC(C)Oc1ccccc1OCCCC1CCCN1C(=O)C(NC(=O)C(C)N)C(C)C` (stereo not drawn) [Entry 4-35], the Kd was 1000 to 10000 nM.

Take `CC(N)C(=O)NC(C(=O)N1CCCC1CCCOc1ccccc1)C(C)C` (stereo not drawn) [Entry 4-37]: the Kd is 1000 to 10000 nM.

Regarding `Cc1cccc(C)c1OCCCC1CCCN1C(=O)C(NC(=O)C(C)N)C(C)C` (stereo not drawn) [Entry 4-38], the Kd is > 10000 nM.

On to `CC(C)[C@H](NC(=O)[C@H](C)N)C(=O)N1C[C@@H](Oc2ccccc2)C[C@H]1Cc1coc2ccccc12` [Entry 5-39], for which the Kd was < 100 nM.

As for `C[C@H](N)C(=O)N[C@H](C(=O)N1C[C@@H](Oc2ccccc2)C[C@H]1Cc1coc2ccccc12)C(C)(C)C` [Entry 5-40], the Kd is < 100 nM.

On to `CC(C)[C@H](NC(=O)[C@H](C)N)C(=O)N1CCC[C@H]1Cc1coc2ccccc12` [Entry 5-41, 2S-Amino-N-[1S-(2S-benzofuran-3-ylmethyl-pyrrolidine-1-carbonyl)-2-methyl-propyl]-propionamide], for which the Kd is < 100 nM.

Regarding `CN[C@@H](C)C(=O)N[C@H](C(=O)N1C[C@@H](Oc2ccccc2)C[C@H]1Cc1coc2ccccc12)C1CCCCC1` [Entry 5-43], the dissociation constant Kd is < 100 nM.

`CC[C@H](N)C(=O)N[C@H](C(=O)N1C[C@@H](Oc2ccccc2)C[C@H]1Cc1coc2ccccc12)C(C)C` [Entry 5-44]: the Kd was < 100 nM.

As for `CN[C@@H](C)C(=O)N[C@H](C(=O)N1C[C@@H](Oc2ccccc2)C[C@H]1Cc1coc2ccccc12)C(C)C` [Entry 5-45], the Kd was < 100 nM.

In the case of `CC(C)C(NC(=O)CN)C(=O)N1CCCC1Cc1coc2ccccc12` (stereo not drawn) [Entry 5-46], the Kd was > 10000 nM.

As for `CC(N)C(=O)NC(C(=O)N1CCCC1Cc1coc2ccccc12)C1CCCCC1` (stereo not drawn) [Entry 5-47], the Kd is < 100 nM.

For `CC(C)C(NC(=O)CN)C(=O)N1CC(Oc2ccccc2)CC1Cc1coc2ccccc12` (stereo not drawn) [Entry 5-52], the Kd was 1000 to 10000 nM.

Turning to `CC[C@H](NC(=O)[C@H](C)N)C(=O)N1C[C@@H](Oc2ccccc2)C[C@H]1Cc1coc2ccccc12` [Entry 5-54], the dissociation constant (Kd) was < 100 nM.

`CC[C@H](NC(=O)[C@@H](N)CC)C(=O)N1C[C@@H](Oc2ccccc2)C[C@H]1Cc1coc2ccccc12` [Entry 5-55]: the Kd was 100 to 1000 nM.

Regarding `CC[C@H](N)C(=O)N[C@H](C(=O)N1C[C@@H](Oc2ccccc2)C[C@H]1Cc1coc2ccccc12)C1CCCCC1` [Entry 5-56], the Kd is 100 to 1000 nM.

On to `CNC(C)C(=O)NC(C(=O)N1CCCC1Cc1coc2ccccc12)C(C)C` (stereo not drawn) [Entry 5-57], for which the Kd is < 100 nM.

For `CCC(N)C(=O)NC(C(=O)N1CCCC1Cc1coc2ccccc12)C(C)C` (stereo not drawn) [Entry 5-58], the Kd is 100 to 1000 nM.

For the compound `CCC(NC(=O)C(C)N)C(=O)N1CCCC1Cc1coc2ccccc12` (stereo not drawn) [Entry 5-59], the Kd was 100 to 1000 nM.

On to `C#CCOC(C)[C@H](NC(=O)[C@H](C)N)C(=O)N1CCC[C@H]1Cc1coc2ccccc12` (stereo partly drawn) [Entry 5-60], for which the Kd is < 100 nM.

Take `CC(N)C(=O)NC(C(=O)N1CCCC1Cc1coc2ccc(Cl)cc12)C(C)C` (stereo not drawn) [Entry 5-61]: the Kd is < 100 nM.

Take `CNC(C)C(=O)NC(C(=O)N1CCCC1Cc1coc2ccc(Cl)cc12)C(C)C` (stereo not drawn) [Entry 5-62]: the Kd is < 100 nM.

On to `CC(C)C(NC(=O)C(C)(C)N)C(=O)N1CCCC1Cc1coc2ccccc12` (stereo not drawn) [Entry 5-64], for which the Kd was > 10000 nM.

In the case of `CC(=O)NC(C)C(=O)NC(C(=O)N1CCCC1Cc1coc2ccccc12)C(C)C` (stereo not drawn) [Entry 5-65], the Kd was > 10000 nM.
